Source: patent publication US11358977B2, “Deuterated pyridone amides and prodrugs thereof as modulators of sodium channels” (VERTEX PHARMACEUTICALS INCORPORATED, priority 2017, dated 2022)

Test: In vitro microsomal metabolic stability assay, monkey
Format: in vitro ADME
Settings: monkey liver microsomes 0.25 mg/mL, 1.0 μM compound, NADPH
Method: Materials. Rat, Dog, Monkey and Human liver microsomes (20 mg/mL) were obtained from Xenotech, LLC (Lenexa, Kans.). P-nicotinamide adenine dinucleotide phosphate, reduced form (NADPH), magnesium chloride (MgCl2), and dimethyl sulfoxide (DMSO) were purchased from Sigma-Aldrich.
Methods. […] The 10 mM stock solutions were diluted to 100 μM in DMSO. In each cluster polypropylene tube, 190.7 μL of 100 mM phosphate buffer, pH 7.4 was added, then 2.5 μL of liver mocrosomes (20 mg/mL, rat, dog, monkey or human) was added, then a 2 μL aliquot of the 100 μM test compound was added, and the mixture was pre-warmed for 10 minutes. Reactions were initiated by addition of 4.8 μL of pre-warmed NADPH solution (100 mM in 100 mM phosphate buffer). The final reaction volume was 200 μL and contained 0.25 mg/mL rat, dog, monkey or human liver microsomes, 1.0 μM test compound, and 2.4 mM NADPH in 0.1 M potassium phosphate buffer, pH 7.4. The reaction mixtures were incubated at 37° C., and the reactions were quenched at 0, 15, 30 and 60 minutes by adding 200 μL of ice-cold quench solution (ACN:MeOH:0.1% formic acid in water 2:2:1) containing internal standard, n=3 per time point. The tubes were centrifuged and supernatants were analyzed for amounts of the test compound remaining by LC-MS/MS. The HPLC system included a Phenomenex Luna C8 column, 3 micron, 2 mm diameter×30 mm long eluted with a gradient mobile phase consisting of 0.1% formic acid in water or in acetonitrile. The analytes were detected by MS/MS with Electrospray Ionization (ESI) in the mode of multiple reaction monitoring (MRM). The injection volume was 10 μL.

Compound: [2H]C([2H])([2H])c1cc(F)ccc1Oc1cc(C(F)(F)F)ccc1C(=O)Nc1cc[nH]c(=O)c1 [Compound 7, 2-(4-fluoro-2-(methyl-d3)phenoxy)-N-(2-oxo-1,2-dihydropyridin-4-yl)-4-(trifluoromethyl)benzamide]
- % remaining (0 min): 100%
- % remaining (15 min): 97.0%
- % remaining (30 min): 93.3%
- % remaining (60 min): 92.5%
